US10626148B2, “Glycopeptides conjugates and uses thereof” (priority 2015, dated 2020)

Tests used:
[1] = test system: NDM-1 expressing Klebsiella pneumoniae ATCC BAA2146; experiment: microbe, parasite or virus in culture; assay type: cell-based; settings: Klebsiella pneumoniae ATCC BAA2146
Protocol: (§1) Test compounds were assayed in a micro-dilution broth format. Stock solutions were made by serially diluting the compounds using autoclaved millipore water or broth media. The antibacterial activity of the compounds was determined against gram positive bactreia like methicillin-resistant S. aureus (MRSA), vancomycin-intermediate-resistant S. aureus (VISA), vancomycin-sensitive E. faecium (VSE), vancomycin-resistant E. faecalis and vancomycin-resistant E. faecium (VRE). Antibacterial activity of dipicolyl-vancomycin conjugate conjugate (4) in combination with meropemem was determined against gram-negative bacteria such as K. pneumoniae ATCC BAA2146, clinical isolates K. pneumoniae R3949, K. pneumoniae R3934, E. coli R3336 and A. baumanii R676. Bacteria, to be tested, were grown for about 10 h in the suitable media, MRSA, VISA and gram negative bacteria were grown in Yeast-dextrose broth (about 1 g of beef extract, about 2 g of yeast extract, about 5 g of peptone and about 5 g of NaCl in about 1000 mL of sterile distilled water (pH-7)). For solid media, about 5% agar was used along with above mentioned composition. VSE and VRE were cultured in Brain Heart Infusion broth (Himedia). The bacterial samples were freeze dried and stored at −80° C. About 5 μL of these stocks were added to about 3 mL of the nutrient broth or Brain Heart Infusion broth and the culture was grown for about 6 h at about 37° C. prior to the experiments. This 6 h grown culture gives about 10^9 cfu/mL and this was determined by spread plating method. The 6 h grown culture was diluted to give effective cell concentration of about 10^5 cfu/mL which was then used for determining MIC. Compounds were serially diluted, in sterile water (2-fold dilution is employed) in a way that the working concentration was about 10 μM for MRSA, and VSE while for VRE, VISA and gram negative bacteria; it was about 100 μM. About 50 μL of these serial dilutions were added to the wells of 96 well plate followed by the addition of about 150 μL of bacterial solution. The plates were then incubated at about 37° C., 150 rpm in the incubator and O.D at 620 nm was recorded at an interval of about 24 h using TECAN (Infinite series, M200 pro) Plate Reader. Each concentration had triplicate values and the whole experiment was done at least twice and the MIC value was determined by taking the average of triplicate O.D. values for each concentration and plotting it against concentration. The data was then subjected to sigmoidal fitting.
(§2) Then, the antibacterial activities of Dipicolyl-vancomycin conjugate (4) is checked in combination with meropenem against New-Delhi β-lactamase producing gram negative bacteria such as K. pneumoniae BAA2146, clinical isolates K. pneumoniae R3949, K. pneumoniae R3934, E. coli R3336 and A. baumanii R676. […] Further we have also evaluated the antibacterial activity of dipicolyl-vancomycin conjugate (4) in presence of zinc sulphate, wherein it forms dipicolyl-vancomycin-zinc complex (5).

[2] = test system: NDM-1 expressing Klebsiella pneumoniae R3934; experiment: microbe, parasite or virus in culture; assay type: cell-based; settings: Klebsiella pneumoniae R3934
Protocol: as §1, §2

[3] = test system: NDM-1 expressing Escherichia coli R3336; experiment: microbe, parasite or virus in culture; assay type: cell-based; settings: Escherichia coli R3336
Protocol: as §1, §2

[4] = test system: NDM-1 expressing Klebsiella pneumoniae R3949; experiment: microbe, parasite or virus in culture; assay type: cell-based; settings: Klebsiella pneumoniae R3949
Protocol: as §1, §2

[5] = test system: Vancomycin-resistant E. faecium (VanA, ATCC 51559); experiment: MIC, micro-dilution broth, VREm; assay type: cell-based
Protocol: as §1

NDM-1 enzyme = molecular target: T1, NDM-1 enzyme (Klebsiella pneumoniae, UniProt C7C422); experiment: NDM-1 enzyme inhibition, nitrocefin substrate; assay type: biochemical
T1 construct: made in house; host or cells: E. coli BL21 (DE3)
T1 sequence (C7C422 29-270, looked up, species assumed): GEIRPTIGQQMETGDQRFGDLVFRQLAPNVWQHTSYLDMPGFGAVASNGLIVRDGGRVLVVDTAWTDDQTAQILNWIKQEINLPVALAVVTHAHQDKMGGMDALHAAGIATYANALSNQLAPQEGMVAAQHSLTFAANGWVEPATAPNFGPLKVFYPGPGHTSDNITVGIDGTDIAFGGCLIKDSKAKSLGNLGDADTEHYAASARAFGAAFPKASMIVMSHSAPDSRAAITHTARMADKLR
Protocol: The NDM-1 was produced by E. coli BL21 (DE3) carrying pET30a-NDM-1 in LB medium. Initially, the purified NDM-1 enzyme (5 nM, HEPES buffer, pH-7.4) was supplemented with 20 μM ZnSO4 for 30 min. Next, the enzyme was pre-incubated with the inhibitor (compound 4) for 20 min prior to the initiation of the assay by the addition of the substrate (Nitrocefin, 30 μM). Assays were read in 96-well microplate format at 490 nm (absorbance) using TECAN plate reader (Infinite Pro.) at 37° C. IC50s were deduced from a plot of percent loss of activity versus inhibitor concentration.

[6] = test system: meropenem-resistant NDM-1 bacteria; experiment: Combination with meropenem against NDM-1 gram negative bacteria; assay type: cell-based; settings: in combination with meropenem
Protocol: Test compounds were assayed in a micro-dilution broth format. Stock solutions were made by serially diluting the compounds using autoclaved millipore water or broth media. The antibacterial activity of the compounds was determined against gram positive bactreia like methicillin-resistant S. aureus (MRSA), vancomycin-intermediate-resistant S. aureus (VISA), vancomycin-sensitive E. faecium (VSE), vancomycin-resistant E. faecalis and vancomycin-resistant E. faecium (VRE). Antibacterial activity of dipicolyl-vancomycin conjugate conjugate (4) in combination with meropemem was determined against gram-negative bacteria such as K. pneumoniae ATCC BAA2146, clinical isolates K. pneumoniae R3949, K. pneumoniae R3934, E. coli R3336 and A. baumanii R676. Bacteria, to be tested, were grown for about 10 h in the suitable media, MRSA, VISA and gram negative bacteria were grown in Yeast-dextrose broth (about 1 g of beef extract, about 2 g of yeast extract, about 5 g of peptone and about 5 g of NaCl in about 1000 mL of sterile distilled water (pH-7)). […] This 6 h grown culture gives about 10^9 cfu/mL and this was determined by spread plating method. […] The plates were then incubated at about 37° C., 150 rpm in the incubator and O.D at 620 nm was recorded at an interval of about 24 h using TECAN (Infinite series, M200 pro) Plate Reader. Each concentration had triplicate values and the whole experiment was done at least twice and the MIC value was determined by taking the average of triplicate O.D. values for each concentration and plotting it against concentration. […]
as §2

[7] = test system: Vancomycin intermediate resistant S. aureus; experiment: MIC, micro-dilution broth, VISA; assay type: cell-based; settings: Staphylococcus aureus
Protocol: as §1

[8] = test system: Methicillin-resistant S. aureus (ATCC 33591); experiment: MIC, micro-dilution broth, MRSA; assay type: cell-based; settings: Staphylococcus aureus
Protocol: as §1

[9] = test system: Vancomycin-resistant E. faecalis (VanA, ATCC 51575); experiment: MIC, micro-dilution broth, VREs; assay type: cell-based; settings: Enterococcus faecalis, ATCC51575
Protocol: as §1

[10] = In-vivo toxicology, systemic toxicity; settings: 100 mg/kg
Protocol: To evaluate maximum tolerability of the new glycopeptide, systemic toxicity was performed on CD-1 female mice. Each mouse was injected with a 0.2 mL of freshly prepared compound 4 solution in saline. The dose of the compound administered was 100 mg/kg (n=5).

[11] = test system: meropenem-resistant NDM-1 K. pneumoniae R3934; experiment: Sepsis infection model in mice; assay type: in vivo; settings: CD-1 mice, i.p., 1 h and 24 h post-infection
Protocol: Sepsis infection model: About six-week-old, female CD-1 mice (weight, ˜19-24 g) were used for the experiments. Mice were infected intraperitoneally (i.p.) with a dose of ˜10^6 CFU/mouse of meropenem-resistant NDM-1 K. pneumoniae R3934. Then, mice were treated twice at 1 h and 24 h post-infection with a specified i.p. dose of either saline, meropenem (10 mg/kg), compound 4 (10 mg/kg), or a combination of compound 4 (10 mg/kg) and meropenem (10 mg/kg). Here, colistin (5 mg/kg) was used as a positive control. Mice were euthanized after 48 h post-infection and then liver, spleen, kidney and lungs were collected to find out the bacterial density in these organs. Organs were placed into 10 ml sterile saline on ice, and then homogenized. The dilutions of the homogenate were plated onto agar plates, which were incubated for 24 h at 37° C. The bacterial titer was expressed as log10 CFU/g of organ weight.

Compound: CN[C@H](CC(C)C)C(=O)N[C@H]1C(=O)N[C@@H](CC(N)=O)C(=O)N[C@H]2C(=O)N[C@H]3C(=O)N[C@H](C(=O)N[C@H](C(=O)NCCCCCCN(Cc4ccccn4)Cc4ccccn4)c4cc(O)cc(O)c4-c4cc3ccc4O)[C@H](O)c3ccc(c(Cl)c3)Oc3cc2cc(c3O[C@H]2OC(CO)[C@H](O)C(O)C2O[C@H]2CC(C)(N)[C@H](O)C(C)O2)Oc2ccc(cc2Cl)[C@H]1O (stereo partly shown) [Compound 4, Dipicolyl-vancomycin conjugate]
- MIC of Meropenem in presence of compound 4 at 12 μM [1]: 1.5 µg/mL
- MIC of Meropenem in presence of compound 4 at 12 μM [2]: 3.1 µg/mL
- MIC of Meropenem in presence of compound 4 at 12 μM [3]: 12 µg/mL
- MIC of Meropenem in presence of compound 4 at 12 μM [4]: 3.1 µg/mL
- MIC ([5]; Enterococcus faecium, ATCC51559): 1.2 µM
- fold more active than vancomycin ([5]; VREm (VRE), ratio of MIC values): about 700 fold
- IC50 (NDM-1 enzyme): ~6 µM
- effect on the activity of NDM-1 (NDM-1 enzyme; nitrocefin as substrate): potent in-vitro dose-dependent inhibition
- resensitization of meropenem-resistant NDM-1 bacteria to meropenem (synergistic activity) [6]: able to resensitize
- MIC [7]: 0.4 µM
- MIC [8]: 0.6 µM
- MIC [9]: 2.5 µM
- survival at 14 days ([10]; CD-1 female mice): All the mice were found to survive
- LD50 at 14 days ([10]; female, CD-1, mouse, in vivo): > 100 mg/kg
- in-vivo antibacterial activity, bacterial titer in organs ([11]; 10 mg/kg alone): did not show any activity
- in-vivo antibacterial activity, bacterial titer in organs ([11]; compound 4 (10 mg/kg) in combination with meropenem (10 mg/kg)): excellent antibacterial activity
